Laboratory results: patent US7285682B2, “Terphenyl guanidines as β-secretase inhibitors” (Wyeth, priority 2005, dated 2007)

Tests used:
[1] = biological target: human BACE1 (Homo sapiens, UniProt P56817); assay: Fluorescent kinetic assay (BACE-1, FRET peptide substrate WABC-6); type: biochemical; conditions: 10 nM enzyme, 25 μM substrate WABC-6, 50 mM Na-Acetate pH 4.5, room temperature
Experimental: Evaluation of BACE-1 Binding Affinity of Test Compounds
1. Fluorescent Kinetic Assays • Final Assay Conditions: 10 nM human BACE1 (or 10 nM Murine BACE1, 1.5 nM human BACE2), 25 μM substrate (WABC-6, MW 1549.6, from AnaSpec), Buffer: 50 mM Na-Acetate, pH 4.5, 0.05% CHAPS, 25% PBS, room temperature. Na-Acetate was from Aldrich, Cat.# 24,124-5, CHAPS was from Research Organics, Cat. # 1304C 1×, PBS was from Mediatech (Cellgro), Cat# 21-031-CV, peptide substrate AbzSEVNLDAEFRDpa was from AnaSpec, Peptide Name: WABC-6 • Determination of stock substrate (AbzSEVNLDAEFRDpa) concentration: ˜25 mM stock solution is made in DMSO using the peptide weight and MW, and diluted to ˜25 μM (1:1000) in 1×PBS. Concentration is determined by absorbance at 354 nm using an extinction coefficient ε of 18172 M^−1 cm^−1, the concentration of stock substrate is corrected, and the substrate stock stored in small aliquots in −80° C. [Substrate Stock]=ABS^354 nm*10^6/18172 ([…]) The extinction coefficient ε^354 nm was adapted from TACE peptide substrate, which had the same quencher-fluorophore pair. • Determination of Stock Enzyme Concentration: the stock concentration of each enzyme is determined by absorbance at 280 nm using ε of 64150 M^−1 cm^−1 for hBACE1 and MuBACE1, 62870 M^−1 cm^−1 for hBACE2 in 6 M Guanidinium Hydrochloride (from Research Organics, Cat. # 5134G-2), pH ˜6. The extinction Coefficient ε^280 nm for each enzyme was calculated based on known amino acid composition and published extinction coefficients for Trp ([…]) and Tyr ([…]) residues (Anal. Biochem. 182, 319-326). • Dilution and mixing steps: total reaction volume: 100 μL
2× inhibitor dilutions in buffer A (66.7 mM Na-Acetate, pH 4.5, 0.0667% CHAPS) were prepared,
4× enzyme dilution in buffer A (66.7 mM Na-Acetate, pH 4.5, 0.0667% CHAPS) were prepared,
100 μM substrate dilution in 1×PBS was prepared, and […]

human BACE1, sequence (P56817 46-501): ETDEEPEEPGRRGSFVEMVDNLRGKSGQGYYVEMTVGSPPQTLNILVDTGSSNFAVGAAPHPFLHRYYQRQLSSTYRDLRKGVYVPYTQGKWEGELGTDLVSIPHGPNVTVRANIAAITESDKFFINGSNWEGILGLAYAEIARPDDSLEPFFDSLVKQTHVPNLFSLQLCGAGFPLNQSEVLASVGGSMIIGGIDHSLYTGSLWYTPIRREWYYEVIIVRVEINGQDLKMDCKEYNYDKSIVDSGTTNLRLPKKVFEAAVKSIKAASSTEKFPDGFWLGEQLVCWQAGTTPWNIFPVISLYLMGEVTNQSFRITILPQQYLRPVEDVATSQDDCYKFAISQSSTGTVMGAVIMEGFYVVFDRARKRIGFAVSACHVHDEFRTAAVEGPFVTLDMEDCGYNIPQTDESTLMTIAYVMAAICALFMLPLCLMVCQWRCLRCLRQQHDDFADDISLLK

SMILES | melting point | IC50 [1]
N=C(N)NC(=O)Cc1c(-c2ccccc2)cccc1-c1ccc2ccccc2c1 [Example 2, N-{[3-(2-Naphthyl)-1,1′-biphenyl-2-yl]acetyl}guanidine] | 36.8 to 36.9 °C | 29.6 µM
NC(N)=NC(=O)Cc1c(-c2ccccc2)cccc1-c1ccc(Oc2ccccc2)cc1 [Example 4, N″-[(4-Phenoxy-1,1′:3′,1″-terphenyl-2′-yl)acetyl]guanidine] | – | 5.95 µM
CC(C)(C)c1ccc(-c2cccc(-c3ccccc3)c2CC(=O)NC(=N)N)cc1 [Example 3, N-[(4-tert-Butyl-1,1′:3′,1″-terphenyl-2′-yl)acetyl]guanidine] | 171 to 174 °C | 13.9 µM
N=C(N)NC(=O)Cc1c(-c2ccccc2)cccc1-c1ccccc1.O=C(O)C(F)(F)F [Example 1, N-(1,1′:3′,1″-Terphenyl-2′-ylacetyl)guanidine TFA salt] | 64 to 67 °C | 15 µM
